Test results reported in patent EP0345906B1, “Unique elastase induced fibrinogen cleavage site antigens” (MERCK & CO. INC., priority 1988, dated 1989).
Values joined by “and” are separate entries in the source; they are usually repeats but may differ in a detail not shown here. Identical values can stand only once.

Columns and labels:
Guinea Pig (#3) = assay: Antibody specificity radioimmunoassay, guinea pig antiserum; type: binding; conditions: probe ¹⁵I-tyrosyl-Aα 1-21
[1] = tested on: Rabbit antiserum prepared against the Aα 17-21 immunogen; assay: Antibody specificity radioimmunoassay, rabbit antiserum; type: binding; conditions: antiserum 1:1,000; probe ¹⁵I-tyrosyl-Aα 1-21; amount in 100 ml aliquot
Description: Antibody specificity was determined by evaluating the ability of unlabelled peptides, specificity probes, of varying length, see Example 6, to inhibit the binding of the Aα 1-21radioactive probe. Rabbit antiserum prepared against the Aα 17-21 immunogen described in Example 2 was diluted in assay buffer, see Example 6, at a dilution of 1:1,000. The specificity peptides of Example 5 were diluted in assay buffer at concentrations ranging from 1.6 x 10⁻¹⁰ M to 1 x 10⁻⁵ M. One hundred ml of each dilution was added to 100 ml of antiserum and 100 ml of radioactive probe. This represents specificity probe peptide in concentrations ranging from 0.016 picomoles to 1.0 nanomoles in the 100 ml aliquot used in the assay. The radioactive probe […], see Example 5, was diluted in assay buffer to yield approximately 20,000 cpm per 100 ml aliquot, the amount used per sample or control. The assay was set up in a volume of 300 ml, with the volume made up where necessary with assay buffer. […]
The antibody-free control and the zero-peptide antibody control are counted to determine the 0% bound and the 100% bound values respectively. Radioactivity was determined using a gamma counter and standard techniques known in the art. The samples containing the test peptides are then counted and the amount of radioactivity associated with the antibody-free control subtracted from each. […]

[2] = tested on: Whole Blood of PiZZ and Normal Individuals; assay: A23187-stimulated production of fibrinogen cleavage peptide in blood of PiZZ and normal individuals; type: cell-based, human; set-up: dose or concentration left out as unconfirmed; conditions: 37° for 25 minutes, one value per individual
Description: Heparinized venous blood was drawn from four individuals who process the PiZZ phenotype, deficient for alpha-1 proteinase inhibitor. Blood was also collected from two normal volunteers. Calcium ionophore A23187 was added to replicate aliquots of the freshly drawn blood to a final concentration of 150 mM. The blood was incubated at 37° for 25 minutes, the plasma collected and assayed cleavage peptide.
Values are expressed as pM Aα 17-21 epitope containing peptide produced per ml of plasma. The blood samples derived from the four individuals who were genetically deficient in alpha-1 proteinase inhibitor produced greater amounts of peptide than did those derived from the normal volunteers. Under basal conditions no fibrinogen cleavage products could be detected in the blood of any of the donors.

whole blood = assay: In vitro production of Aα 17-21 epitope containing peptide in whole blood, ionophore incubation time; type: cell-based, human; set-up: dose or concentration left out as unconfirmed
Description: Calcium ionophore A23187 was added to replicate 1.0 ml aliquots of freshly-drawn heparinized whole blood as described above, to a final concentration of 150 mM. Additional control aliquots of blood received DMSO at a concentration of 0.2%. The blood aliquots were incubated at 37° for various time intervals ranging up to 60 minutes. Following the incubation, plasma was prepared, processed and assayed as above.

whole human blood = assay: In vitro production of Aα 17-21 epitope containing peptide in human blood, effect of ionophore concentration; type: cell-based; set-up: Aα 17-21 Epitope Containing (picomoles per ml blood): unit of the concentration uncertain; conditions: for Aα 17-21 Epitope Containing (picomoles per ml blood): 15 minutes at 37°C
Description: The radioimmunoassay was conducted in a total volume of 300 ml with all dilutions carried out in assay buffer, Example 6. Standard solutions were prepared at concentrations in the range of 1 x 10⁻¹⁰M to 2 x 1O⁻⁸M which represents amounts of peptide ranging from 0.01 picomoles to 2.0 picomoles in the 100 ml aliquot used in the assay. The assay included antibody-free controls to measure non-specific binding, and controls containing antibody and probe without added standard samples or unknown samples to determine the control level of peptide binding. To 100 ml of buffer, standard sample or unknown was added, 100 ml of specific antiserum from Examples 2 and 7, diluted 1:1,000 in assay buffer. This was followed by the addition of […] of radioactive probe, 125I-Tyrosyl-Aα 1-21 fibrinogen peptide, diluted in assay buffer to yield approximately 15,000 to 20,000 cpm per 100 ml aliquot. The assay was incubated overnight at 4°C and the non-antibody-bound radioactive probe was separated from antibody-bound probe by adsorption onto dextran-coated activated charcoal, see Example 7. Each assay included charcoal-free controls, to which 1 ml PBS was added for the determination of total counts. Radioactivity was determined using a gamma counter and standard techniques known in the art.
The antibody-free control and the zero-peptide antibody control were counted to determine the 0% bound and 100% bound values respectively. The assay standards are then counted and divided by the antibody control to determine the percent bound and a standard curve was generated. When the percent bound is plotted as a function of the logarithem of the amount of peptide in the standard, a sigmoidal curve is generated which is close to linear between the limits of 80% bound and 20% bound. Unknowns are counted, their percent of control calculated and they are compared to the standard curve to determine the amount of peptide present in the sample. Only those unknowns with values between 80% and 20% of control binding are considered valid.
Duplicate 1.0 ml aliquots of freshly-drawn heparinized vaccutainers containing 50 u per ml whole human blood were incubated for 15 minutes at 37°C in the presence of calcium ionophore A23187 at concentrations ranging up to 200 mM. The calcium ionophore was dissolved in dimethyl sulfoxide (DMSO) with the DMSO concentration in blood kept constant at 0.2%. Following incubation the aliquots were placed on ice, centrifuged and the plasma collected. Plasma aliquots (400 ml) were removed and placed in 12 x 75 mm glass tubes and 1200 ml chilled ethanol was added to precipitate the protein. The sample was centrifuged and 800 ml of the supernatant fluid was removed and evaporated to dryness in a Speed-vac concentrator. The sample was reconstituted to original plasma volume with 200 ml of distilled water. Duplicate […] aliquots were assayed for Aα 17-21 epitope containing peptide (Aα 1-21) as described in this Example. […]

Gly-Pro-Arg-Val-Val (GPRVV; printed: Gly-Pro-Arg-Val-Val) [Aα 17-21]
Inhibitory Concentration (IC₅₀) picomoles Guinea Pig (#3) (Guinea Pig (#3)): 10 picomoles | Inhibitory Concentration (IC₅₀) picomoles Rabbit (#20) [1]: 1.6 picomoles

CNc1ccc2oc(C[C@H]3O[C@@]4(CC[C@H]3C)O[C@H]([C@H](C)C(=O)c3ccc[nH]3)[C@H](C)C[C@H]4C)nc2c1C(=O)O [A23187]
Aα 17-21 epitope containing peptide produced per ml of plasma, A23187 ([2]; Normal individuals): 4.2 pM per ml of plasma and 4.6 pM per ml of plasma | Aα 17-21 epitope containing peptide produced per ml of plasma, A23187 ([2]; PiZZ individuals): 8.4 pM per ml of plasma and 26.5 pM per ml of plasma and 20.5 pM per ml of plasma and 17.8 pM per ml of plasma | Aα 17-21 Epitope (picomoles/ml plasma) (whole blood; Incubation Time 2.5 minutes): 2.3 picomoles/ml plasma | Aα 17-21 Epitope (picomoles/ml plasma) (whole blood; Incubation Time 7.5 minutes): 2.8 picomoles/ml plasma | Aα 17-21 Epitope (picomoles/ml plasma) (whole blood; Incubation Time 10.0 minutes): 3.5 picomoles/ml plasma | Aα 17-21 Epitope (picomoles/ml plasma) (whole blood; Incubation Time 15.0 minutes): 3.7 picomoles/ml plasma | Aα 17-21 Epitope (picomoles/ml plasma) (whole blood; Incubation Time 20.0 minutes): 3.7 picomoles/ml plasma | Aα 17-21 Epitope (picomoles/ml plasma) (whole blood; Incubation Time 25.0 minutes): 3.8 picomoles/ml plasma | Aα 17-21 Epitope (picomoles/ml plasma) (whole blood; Incubation Time 30.0 minutes): 3.8 picomoles/ml plasma | Aα 17-21 Epitope (picomoles/ml plasma) (whole blood; Incubation Time 40.0 minutes): 3.6 picomoles/ml plasma | Aα 17-21 Epitope (picomoles/ml plasma) (whole blood; Incubation Time 50.0 minutes): 3.1 picomoles/ml plasma | Aα 17-21 Epitope (picomoles/ml plasma) (whole blood; Incubation Time 60.0 minutes): 3.2 picomoles/ml plasma | Aα 17-21 Epitope (picomoles/ml plasma) (whole blood; Incubation Time <1.0 minutes): 0.7 picomoles/ml plasma | Aα 17-21 Epitope Containing (picomoles per ml blood) (whole human blood; Ionophore Concentration 5 (unit uncertain)): 1.2 picomoles per ml blood | Aα 17-21 Epitope Containing (picomoles per ml blood) (whole human blood; Ionophore Concentration 15 (unit uncertain)): 1.6 picomoles per ml blood | Aα 17-21 Epitope Containing (picomoles per ml blood) (whole human blood; Ionophore Concentration 25 (unit uncertain)): 2.6 picomoles per ml blood | Aα 17-21 Epitope Containing (picomoles per ml blood) (whole human blood; Ionophore Concentration 50 (unit uncertain)): 2.8 picomoles per ml blood | Aα 17-21 Epitope Containing (picomoles per ml blood) (whole human blood; Ionophore Concentration 100 (unit uncertain)): 4.0 picomoles per ml blood | Aα 17-21 Epitope Containing (picomoles per ml blood) (whole human blood; Ionophore Concentration 150 (unit uncertain)): 4.1 picomoles per ml blood | Aα 17-21 Epitope Containing (picomoles per ml blood) (whole human blood; Ionophore Concentration 200 (unit uncertain)): 3.8 picomoles per ml blood | concentration giving optimal production of Aα 17-21 epitope-containing peptide (whole human blood; whole human blood): 150 mM
